Source: patent publication US10357481B2 (MERCK SHARP & DOHME CORP., priority 2015, dated 2019)

biological target: T1, human PDE2A1 (Homo sapiens, UniProt O00408); assay: IMAP FP PDE selectivity panel, human PDE2A1; assay type: biochemical; conditions: Lab B; read-out: Human PDE2 Ki (nM) Lab B
T1 construct: GST; purchased BPS Bioscience (San Diego, Calif.) 60020; host or cells: insect cells
How it was run: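 IMAP FP read-out, run at room temperature in parallel with PDE1–11: enzyme at 20% substrate conversion, 50 nM FAM-cAMP containing 1000 nM cGMP, Tris pH 7.2/MgCl2/DTT buffer. Compounds as ten 3-fold dilutions. Reaction 60 min, stopped with binding reagent for 1 h before polarization measurement.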

T1 sequence (O00408 1-920 isoform O00408-2): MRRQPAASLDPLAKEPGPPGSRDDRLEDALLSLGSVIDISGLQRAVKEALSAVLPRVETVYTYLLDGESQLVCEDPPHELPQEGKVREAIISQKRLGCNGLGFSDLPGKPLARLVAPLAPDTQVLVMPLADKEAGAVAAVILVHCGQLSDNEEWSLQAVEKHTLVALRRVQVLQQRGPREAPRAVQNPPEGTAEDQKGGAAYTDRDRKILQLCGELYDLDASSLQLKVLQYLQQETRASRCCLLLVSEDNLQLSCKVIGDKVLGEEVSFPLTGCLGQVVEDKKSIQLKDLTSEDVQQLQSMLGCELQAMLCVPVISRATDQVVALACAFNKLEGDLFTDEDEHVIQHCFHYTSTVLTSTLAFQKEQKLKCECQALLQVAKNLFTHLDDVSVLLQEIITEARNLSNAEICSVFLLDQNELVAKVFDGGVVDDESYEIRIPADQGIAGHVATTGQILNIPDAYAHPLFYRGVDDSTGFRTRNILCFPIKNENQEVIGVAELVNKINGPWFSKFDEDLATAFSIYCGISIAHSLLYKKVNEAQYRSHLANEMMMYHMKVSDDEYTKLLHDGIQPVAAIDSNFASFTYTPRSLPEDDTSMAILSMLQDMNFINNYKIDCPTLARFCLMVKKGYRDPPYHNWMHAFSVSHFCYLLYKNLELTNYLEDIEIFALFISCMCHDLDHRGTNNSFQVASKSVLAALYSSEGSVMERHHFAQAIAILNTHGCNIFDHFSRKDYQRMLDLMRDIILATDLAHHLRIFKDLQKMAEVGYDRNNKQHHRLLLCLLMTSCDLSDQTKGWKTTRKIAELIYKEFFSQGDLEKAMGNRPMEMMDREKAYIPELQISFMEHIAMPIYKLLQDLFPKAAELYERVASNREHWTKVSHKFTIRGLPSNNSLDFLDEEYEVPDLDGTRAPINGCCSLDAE

| SMILES | Ki [nM] |
| --- | --- |
| Cc1cc(N[C@@H](c2ccc(S(F)(F)(F)(F)F)cc2)C2CC2)n2ncnc2n1 [Example 37, N-{(1R)-Cyclopropyl[4-(pentafluoro-λ^6-sulfanyl)phenyl]methyl}-5-methyl[1,2,4]triazolo[1,5-a] pyrimidin-7-amine] | 22 |
| Cc1cc(NC(c2ccc(C(F)(F)F)cc2F)C(C)(C)O)n2ncnc2n1 (single isomer, unassigned) [Example 114, (1S or R)-1-[2-Fluoro-4-(trifluoromethyl)phenyl]-2-methyl-1-[(5-methyl [1,2,4]triazolo [1,5-a]pyrimidin-7-yl)amino] propan-2-ol] | > 2960 |
| Cc1cc(NC(c2ccc(-c3ccccc3)cc2)C(C)(C)O)n2ncnc2n1 (single isomer, unassigned) [Example 127, (1R or S)-1-Biphenyl-4-yl-2-methyl-1-[(5-methyl[1,2,4]triazolo[1,5-a]pyrimidin-7-yl)amino]propan-2-ol] | 21 |
| Cc1cc(NC(c2ccc(OC(F)(F)F)cc2C)C(C)(C)O)n2ncnc2n1 (single isomer, unassigned) [Example 129, (1R or S)-2-Methyl-1-[(5-methyl[1,2,4]triazolo[1,5-a]pyrimidin-7-yl)amino]-1-[2-methyl-4-(trifluoromethoxy)phenyl]propan-2-ol] | 21 |
| Cc1cc(N[C@H](C)c2ccc(CC(F)(F)F)cc2)n2ncnc2n1 [Example 4, 5-Methyl-N-{(1R)-1-[4-(2,2,2-trifluoroethyl)phenyl]ethyl}[1,2,4] triazolo[1,5-a]pyrimidin-7-amine] | 108 |
| Cc1cc(N[C@H](C)c2ccc(C(F)(F)F)c(F)c2)n2ncnc2n1 [Example 3, N-{(1R)-1-[3-Fluoro-4-(trifluoromethyl)phenyl]ethyl}-5-methyl[1,2,4]triazolo[1,5-a] pyrimidin-7-amine] | 115 |
| Cc1cc(NC(c2ccc(CC(F)(F)F)cc2)C(C)(C)O)n2ncnc2n1 (single isomer, unassigned) [Example 118, (1S or R)-2-Methyl-1-[(5-methyl [1,2,4]triazolo [1,5-a]pyrimidin-7-yl)amino]-1-[4-(2,2,2-trifluoroethyl)phenyl]propan-2-ol] | > 2960 |
| CC(C)(O)C(Nc1cc(C(F)(F)F)nc2ncnn12)c1ccc(OC(F)(F)F)c(F)c1 (single isomer, unassigned) [Example 175, (1S or R)-1-[3-Fluoro-4-(trifluoromethoxy)phenyl]-2-methyl-1-{[5-(trifluoromethyl) [1,2,4]triazolo [1,5-a]pyrimidin-7-yl]amino} propan-2-ol] | 14 |
| Cc1cc(NC(c2ccc3c(c2)OC(F)(F)O3)C(C)(C)O)n2ncnc2n1 (single isomer, unassigned) [Example 112, (1S or R)-1-(2,2-Difluoro-1,3-benzodioxol-5-yl)-2-methyl-1-[(5-methyl[1,2,4]triazolo[1,5-a]pyrimidin-7-yl)amino]propan-2-ol] | > 2960 |
| Cc1cc(N[C@@H](c2ccc(C(F)(F)F)c(F)c2)C(C)C)n2ncnc2n1 [Example 20, N-{(1R)-1-[3-Fluoro-4-(trifluoromethyl)phenyl]-2-methylpropyl}-5-methyl[1,2,4]triazolo[1,5-a] pyrimidin-7-amine] | 28 |
| Cc1cc(N[C@@H](c2ccc(C(F)(F)F)cc2F)C(C)(C)C)n2ncnc2n1 [Example 34, N-{(1R)-1-[2-Fluoro-4-(trifluoromethyl)phenyl]-2,2-dimethylpropyl}-5-methyl[1,2,4]triazolo[1,5-a] pyrimidin-7-amine] | 15 |
| CC(C)(C)[C@@H](Nc1cc(CO)nc2ncnn12)c1ccc(C(F)(F)F)c(F)c1 [Example 79, [7-({(1R)-1-[3-Fluoro-4-(trifluoromethyl)phenyl]-2,2-dimethylpropyl}amino)[1,2,4]triazolo[1,5-a]pyrimidin-5-yl]methanol] | 208 |
| Cc1nc2ncnn2c(N[C@H](C)c2ccc(C(F)(F)F)cc2)c1C [Example 85, 5,6-Dimethyl-N-{(1R)-1-[4-(trifluoromethyl)phenyl]ethyl}[1,2,4]triazolo[1,5-a]pyrimidin-7-amine] | ~1160 |
| Cc1cc(NC(c2ccc(OC(F)(F)F)c(F)c2)C(C)(C)O)n2nc(C)nc2n1 (single isomer, unassigned) [Example 133, (1R or S)-1-[(2,5-Dimethyl[1,2,4]triazolo[1,5-a]pyrimidin-7-yl)amino]-1-[3-fluoro-4-(tri-fluoromethoxy)phenyl]-2-methylpropan-2-ol] | 18 |
| Cc1cc(NC(c2ccc(C(F)F)cc2)C(C)(C)O)n2ncnc2n1 (single isomer, unassigned) [Example 108, (1S or R)-1-[4-(Difluoromethyl)phenyl]-2-methyl-1-[(5-methyl [1,2,4]triazolo [1,5-a]pyrimidin-7-yl)amino] propan-2-ol] | 49 |
| Cc1cc(NC(C)(C)c2ccc(C(F)(F)F)cc2F)n2ncnc2n1 [Example 52, N-{1-[2-Fluoro-4-(trifluoromethyl)phenyl]-1-methylethyl}-5-methyl [1,2,4]triazolo[1,5-a]pyrimidin-7-amine] | 78 |
| Cc1cc(NC(C)(C)c2ccc(OC(F)(F)F)c(F)c2)n2ncnc2n1 [Example 45, N-{1-[3-Fluoro-4-(trifluoromethoxy)phenyl]-1-methylethyl}-5-methyl[1,2,4]triazolo[1,5-a]pyrimidin-7-amine] | 207 |
| Cc1cc(N[C@@H](c2ccc(OC(F)(F)F)c(Cl)c2)C(C)(C)O)n2ncnc2n1 [Example 102, (1S)-1-[3-Chloro-4-(trifluoromethoxy)phenyl]-2-methyl-1-[(5-methyl[1,2,4]triazolo[1,5-a]pyrimidin-7-yl)amino]propan-2-ol] | 14 |

Other lines, results leading:

| Ki [nM] | SMILES |
| --- | --- |
| > 2960 | Cc1cc(NC2(c3cccc(C(F)(F)F)c3F)COC2)n2ncnc2n1 [Example 200, N-(3-(2-Fluoro-3-(trifluoromethyl)phenyl)oxetan-3-yl)-5-methyl-[1,2,4]triazolo [1,5-a]pyrimidin-7-amine] |
| 530 | C[C@@H](Nc1cc(CO)cc2ncnn12)c1ccc(OC(F)(F)F)cc1 [Example 271, [5-({(1R)-1-[4-(Trifluoromethoxy)phenyl]ethyl}amino)[1,2,4]triazolo[1,5-a]pyridin-7-yl] methanol] |
| 18 | COc1cc(NC2(c3ccc(C(F)(F)F)c(F)c3)CC2)n2ncnc2n1 [Example 235, N-(1-(3-Fluoro-4-(trifluoromethyl)phenyl)cyclopropyl)-5-methoxy-[1,2,4]triazolo [1,5-a]pyrimidin-7-amine] |
| 498 | CC(C)(O)[C@H](Nc1cc(C(F)F)cc2ncnn12)c1ccc(S(F)(F)(F)(F)F)cc1 [Example 283, (1R)-1-{[7-(Difluoromethyl) [1,2,4]triazolo[1,5-a]pyridin-5-yl]amino}-2-methyl-1-[4-(pentafluoro-λ^6-sulfanyl)phenyl]propan-2-ol] |
| 22 | Cc1cc(NC2(c3ccc(C(F)(F)F)c(F)c3)CC2)n2nc(N)nc2n1 [Example 255, N^7-{1-[3-Fluoro-4-(trifluoromethyl)phenyl]cyclopropyl}-5-methyl[1,2,4]triazolo[1,5-a]pyrimidine-2,7-diamine] |
| 310 | Cc1cc(NC(c2ccc(C(F)(F)F)cn2)C(C)C)n2ncnc2n1 (single isomer, unassigned) [Example 212, (S)- or (R)-5-Methyl-N-(2-methyl-1-(5-(trifluoromethyl)pyridin-2-yl)propyl)-[1,2,4]triazolo [1,5-a]pyrimidin-7-amine] |
| 2080 | C[C@H](Nc1cc(CO)cc2ncnn12)c1ccc(C(F)(F)F)cc1 [Example 268, [5-({(1S)-1-[4-(Trifluoromethyl)phenyl]ethyl}amino)[1,2,4]triazolo[1,5-a]pyridin-7-yl] methanol] |
| > 2960 | COCC(Nc1cc(C(F)(F)F)nc2ncnn12)c1ccc(C(F)(F)F)c(F)c1 (single isomer, unassigned) [Example 218, (S)- or (R)-N-(1-(3-Fluoro-4-(trifluoromethyl)phenyl)-2-methoxyethyl)-5-(trifluoromethyl)-[1,2,4]triazolo [1,5-a]pyrimidin-7-amine] |
| 137 | Cc1cc(OC2(c3ccc(C(F)(F)F)cc3)CC2)n2ncnc2n1 [Example 262, 5-Methyl-7-({1-[4-(trifluoromethyl)phenyl]cyclopropyl}oxy)[1,2,4]triazolo[1,5-a]pyrimidine] |
| 87 | CC(C)(O)[C@@H](Nc1cc(C(F)(F)F)cc2ncnn12)c1ccc(C(F)(F)F)cc1 [Example 277, (1S)-2-Methyl-1-[4-(trifluoromethyl)phenyl]-1-{[7-(trifluoromethyl)[1,2,4]triazolo [1,5-a]pyridin-5-yl]amino} propan-2-ol] |
| 140 | OCCc1cc(NC2(c3ccc(C(F)(F)F)c(F)c3)CC2)n2ncnc2n1 [Example 251, 2-(7-(1-(3-Fluoro-4-(trifluoromethyl)phenyl)cyclopropylamino)-[1,2,4]triazolo[1,5-a]pyrimidin-5-yl)ethanol] |
| 90 | FS(F)(F)(F)(F)c1ccc(C2(Nc3cncc4ncnn34)CC2)cc1 [Example 290, N-{1-[4-(Pentafluoro-λ^6-sulfanyl)phenyl]cyclopropyl} [1,2,4]triazolo[1,5-a]pyrazin-5-amine] |
| > 2960 | CC(C)(O)C(Nc1cc(C(F)(F)F)nc2ncnn12)c1ccc(C(F)(F)F)c(F)c1 (single isomer, unassigned) [Example 213, (S)- or (R)-1-(3-Fluoro-4-(trifluoromethyl)phenyl)-2-methyl-1-(5-(trifluoromethyl)-[1,2,4]triazolo [1,5-a]pyrimidin-7-ylamino)propan-2-ol] |
| 4.4 | CC(C)(O)C(Nc1cc(C(F)(F)F)nc2ncnn12)c1ccc(SC(F)(F)F)cc1 (single isomer, unassigned) [Example 222, (S)- or (R)-2-Methyl-1-(5-(trifluoromethyl)-[1,2,4]triazolo [1,5-a]pyrimidin-7-ylamino)-1-(4-(trifluoromethylthio)phenyl)propan-2-ol] |
